Data: patent publication EP3173083A1, “IN VIVO ANTIANGIOGENIC EFFECT OF A PALLADIUM COMPLEX” (Istanbul Universitesi Rektorlugu, priority 2015, dated 2017)

Test system: CAM
Experiment: chorioallantoic membrane (CAM) model of antiangiogenic effect
Format: in vivo, chicken
Conditions: for Score: average antiangiogenic score on CAM, evaluated by stereomicroscope 24 hours after pellet application; for antiangiogenic effect on CAM: effect class by scoring system of Table 1, 50 µg/pellet
Description: In a study performed on the antiangiogenic effect of palladium complex of the invention, a method which is named chorioallantoic membrane (CAM) model is used. The model in question is a method developed by the embryologists more than 50 years ago, has a broad area of usage in embryonic researches (Auerbach, R., Lewis, R., Shinners, B., Kubai, L., Akhtar, N., 2003. Angiogenesis assays: a critical overview. Clin. Chem., 49(1): 32-40). Since 1956, the model is used in cancer and metastasis researches. The model has been started to be used in angiogenesis studies by Folkman in 1976. CAM is a non-embryo membrane which is formed by the merger of chorion and allantois as a result of an incubation of four-days. Although it is widely used in embryonic researches, it also has a broad range of usage in cancer and metastasis researches (Ribatti, D., 2010. The inefficacy of antiangiogenic therapies. J. Angiogenes. Res., 2:27. doi: 10.1186/2040-2384-2-27). […] The method is one of the most commonly used methods since it is quick, cheap and semi quantitative and enable scanning of many new agents (Cimpean, A.M., Ribatti, D., Raica, M., 2008. The chick embryo chorioallantoic membrane as a model to study tumor metastasis. Angiogenesis, 11(4): 311-319; Ribatti, D., 2008. Chick embryo chorioallantoic membrane as a useful tool to study angiogenesis. Int. Rev. Cell Mol. Biol., 270: 181-224).
The experiment Protocol which was reported in 1967 by D'Arcy and Howard and in 2002 by Bürgermeister and his colleagues was used (D'Arcy, P.F., Howard, E.M.,1967. A new anti-inflammatory test, utilizing the chorio-allantoic membrane of the chick embryo. Br. J. Pharmacol. Chemother., 29(3): 378-38; Bürgermeister, J., Paper, D.H., Vogl, H., Linhardt, R.J., Franz, G., 2002. LaPSvS1, a (1-->3)-beta-galactan sulfate and its effect on angiogenesis in vivo and in vitro. Carbohydr. Res., 337(16): 1459-1466).
The palladium complex, 5 mg/ml (50 µg /pellet), the standard control agents sodium dodecyl sulfate (SDS), cortisone, prednisone, (±)-thalidomide has been suspended in 2,5 % (w/v) agar at a final concentration of 50 µg /pellet by heating (60 °C<). Then, 10 µl is taken from this suspension and provided to become frozen pellet at room temperature by being applied on stainless steel cylinder supports with a diameter 5 mm. Pellets are applied onto the surface of CAM.
The procedure for CAM experiment is given in Figure 1 (Kiyan, H.T., 2010. Baz ? Hypericum Türlerinin Uçucu Yaǧ Bile ? imleri ve Antianjiyojenik Aktiviteleri, Yüksek Lisans Tezi, Anadolu Üniversitesi, Saǧl ? k Bilimleri Enstitüsü, Farmakognozi Program ? , 19p). Accordingly, fertilized chicken eggs to be used in experiment are incubated at 36,5 °C and in an incubator with 80% relative humidity (climatization cabin) at horizontal position for 72 hours before the experiment. In this period, eggs were carefully upturned time to time. At the end of the incubation period, firstly, from the bottom side of eggs with the help of the sterile injectors, 10-15 ml of albumin (egg white) is slowly removed and then from the top side of eggs (more upright and sharp part), shell and membrane are carefully removed with the help of the forceps (Figure-1, A). Living and developing embryo CAM immediately taken under protection with a stretch film, is waited again at 36,5 °C and in an incubator with 80% relative humidity for another 72 hours (Figure-1, B). When diameter of the CAM is detected to be approximately 2 cm, one piece of freshly prepared sample pellet for each egg is placed into the capillaries on the CAM (Figure-1, C). 15 pellets from each material is applied on CAM of an equal number of eggs and covered with stretch film. Before the evaluations, eggs were incubated for another 24 hours in such a way that pellets are placed in under specified conditions. […]

SMILES | Score (50 µg/pellet) | antiangiogenic effect on CAM | toxic or irritant effect on CAM (50 µg/pellet) | Irritation (%) (CAM, 50 µg/pellet, 24 hours after pellet application)
O=C1CCC(N2C(=O)c3ccccc3C2=O)C(=O)N1 (racemic) [(±)-Thalidomide] | 0.9 ± 0.2 | strong | – | –
C[C@]12CCC(=O)C=C1CC[C@@H]1[C@@H]2C(=O)C[C@@]2(C)[C@H]1CC[C@]2(O)C(=O)CO [Cortisone] | 1.2 ± 0.2 | very strong | – | –
O=C1c2ccccc2S(=O)(=O)[N]1[Pd-2]12[n+]3ccccc3-c3cccc([n+]31)-c1cccc[n+]12 [Palladium complex, [Pd(sac)(terpy)] (sac)•4H2O (sac=saccharinate and terpy=2,2':6',2"-terpyridine)]] | – | very strong | no toxic or irritant effect | –
C[C@]12C=CC(=O)C=C1CC[C@@H]1[C@@H]2C(=O)C[C@@]2(C)[C@H]1CC[C@]2(O)C(=O)CO [Prednisone] | 0.9 ± 0.7 | strong | – | –
CCCCCCCCCCCCOS(=O)(=O)[O-].[Na+] [Sodium dodecyl sulphate (SDS), Sodium dodecyl sulphate] | 0.1 ± 0.1 | – | irritant effect | 87 ± 5
